Like-named read-outs stand apart in the source and are kept apart here.
Legend:
[1] = cited from earlier work
[2] = set-up: method as in Shen et al., 2020; Jiang et al., 2021; settings: rats; intravenous injection of 14C-ilaprazole; ref Shen et al., 2020; Jiang et al., 2021; cited from earlier work
[3] = set-up: method as in Sachs et al., 2006; Shin et al., 2014; settings: ref Sachs et al., 2006; Shin et al., 2014; cited from earlier work
[4] = cited from earlier work; remark: listed apart in the source
[5] = Population pharmacokinetic (PopPK) model of ilaprazole, intravenous infusion, pooled data of 4 phase I and 1 phase IIa trials; type: in vivo, human; set-up: Disease status effect on Vp (Disease status = 1): scale not given here; key to ω^2 Vp, inter-individual variability / ω^2 CL, inter-individual variability: variance ω^2 of log-normal (exponential) inter-individual random effect η
Excerpt: Data used to construct the PopPK model in current study were collected from 5 clinical trials of ilaprazole injection, including 4 phase I (No. CTR20132848, No. CTR20140147, No. CTR20150686, No. CTR20150685) clinical trials in healthy subjects, and 1 phase IIa (No. CTR20132846) clinical trial in patients with duodenal ulcer ([Wang et al., 2016a]; [Wang et al., 2016b]; [Wang et al., 2019]). All above studies included in this analysis were reviewed and approved by the Institutional Ethics Committee, registered in the China Clinical Trials Registry Center (chinadrugtrials.org.cn), and conducted in strict adherence to Good Clinical Practice and the Declaration of Helsinki.
The single-dose phase I study (No. CTR20132848) was a randomized, open, four-cycle crossover trial in which 16 healthy subjects were randomized into four groups and were given either oral control drug or intravenous infusion of 5, 10 or 20 mg of ilaprazole during different cycles, after a 1-week washout period, and then separately after crossover. In the multiple-dose phase I study (No. CTR20140147), 10 healthy subjects received a 5-day continuous intravenous infusion of 10 mg ilaprazole once daily. The next studies (No. CTR20150686, No. CTR20150685) were conducted in healthy subjects with a single 30 mg intravenous infusion of ilaprazole, and a 20 mg loading dose combined with a 10 mg maintenance dose for a total of 3 days of intravenous infusion of ilaprazole. In the phase IIa study (No. CTR20132846), 20 patients with duodenal ulcer were randomized to receive a 20 mg loading dose plus a 10 mg maintenance dose of intravenous infusion of ilaprazole once daily or a positive control drug.
Blood samples were collected for clinical pharmacokinetic analysis of ilaprazole in all studies, and the specific sampling designs are summarized in Table 1. To determine the concentration of ilaprazole in human plasma, a validated UPLC-MS/MS method was utilized, with the samples being processed by protein precipitation ([Wang et al., 2012]). The analytes were chromatographed on Acquity UPLC BEH C18 column (waters, MA, United States), and the detection was performed on Xevo-TQS tandem mass spectrometer coupled with an electro-spray ionization (ESI) source (waters, MA, United States). It is notable that ilaprazole concentration remained linear in the range of 1–1,000 ng/mL, with the lower limit of quantification of 1 ng/mL. After excluding 5 concentrations below the limit of quantification (BLQ) and 7 concentrations not detected (ND), a total of 1,560 plasma concentration from 58 subjects who received intravenous infusion of ilaprazole were included in the final PopPK analysis.
Based on the pooled data from the clinical studies mentioned above, the PopPK model for ilaprazole was constructed using non-linear mixed-effects model of Phoenix NLME (version 8.3; Certara Inc, Princeton, NJ, United States). We developed the PopPK model using the first-order conditional estimation extended least squares (FOCE-ELS) method. The specific modeling steps are as follows.
For the basic structural model, one-compartment and two-compartment models were tested to fit the data set according to the plasma concentration-time profile of ilaprazole, plotted on a semi-logarithmic scale. Based on the fact that the distribution of the population pharmacokinetic (PK) parameters essentially conforms to a log-normal distribution, the inter-individual variability in pharmacokinetic parameters was estimated by an exponential model (Eq. 1). Pik=Ppoppk*exp ηik (1)
In Eq. 1, Pik represents the kth pharmacokinetic parameter for the ith individual, Ppopk represents the typical value of the parameter in population, and ηik depicts the deviation between the kth pharmacokinetic parameter of the ith individual and the typical value of the population (i.e., random effect), It is assumed that η follows a normal distribution centered at 0 with variance ω^2. […]

[6] = set-up: method as in Wang et al., 2019; settings: ref Wang et al., 2019, cited from earlier work

COc1ccnc(C[S+]([O-])c2nc3cc(-n4cccc4)ccc3[nH]2)c1C (centres unmarked) [ilaprazole, 2-[[(4-methoxy-3-methyl)-2-pyridinyl]methyl-sulfinyl]-5-(1H-pyrol-1-yl)-1H-benzimidazole]
LogP [1]: 3.04 | radioactive signal in tissues/organs [2]: can still be observed in the stomach after 24 h | half-life (t1/2) [3]: 4.7 to 5.3 h | plasma protein binding capacity [4]: more than 97% | CL, clearance of central compartment ([5]; bootstrap median (n = 1,000)): 3.394 L/h | V, volume of central compartment ([5]; bootstrap median (n = 1,000)): 6.819 L | Vp, volume of peripheral compartment ([5]; bootstrap median (n = 1,000)): 5.480 L | WT effect on Vp ([5]; bootstrap median (n = 1,000)): 1.573 | σmult, residual variability ([5]; bootstrap median (n = 1,000)): 0.182 | ω^2 CL, inter-individual variability ([5]; bootstrap median (n = 1,000)): 0.057 | ω^2 V, inter-individual variability ([5]; bootstrap median (n = 1,000)): 0.013 | ω^2 Vp, inter-individual variability ([5]; bootstrap median (n = 1,000)): 0.033 | Disease status effect on Vp (Disease status = 1) ([5]; bootstrap median (n = 1,000), duodenal ulcer): 0.356 | clearance ([5]; both sexes, human, plasma, intravenous, final model estimate, read-out: CL, clearance of central compartment, typical value (converted)): 56.6 mL/min | ω^2 CL, inter-individual variability ([5]; final model estimate): 0.059 | ω^2 V, inter-individual variability ([5]; final model estimate): 0.013 | ω^2 Vp, inter-individual variability ([5]; final model estimate): 0.032 | Disease status effect on Vp (Disease status = 1) ([5]; final model estimate, Disease status = 1 for duodenal ulcer): 0.356 | V, volume of central compartment, typical value ([5]; final model estimate, IV infusion, Chinese healthy subjects and duodenal ulcer patients): 6.795 L | Vp, volume of peripheral compartment, typical value ([5]; final model estimate, median weight 60.6 kg): 5.544 L | σmult, residual variability ([5]; final model estimate, multiplicative residual error): 0.184 | WT effect on Vp ([5]; final model estimate, power exponent on Weight/60.6): 1.545 | AUC0‐∞ ([6]; duodenal ulcers patients): 4900 ng·h/mL | Cmax ([6]; duodenal ulcers patients): 1,540 ng/mL | AUC0‐∞ ([6]; healthy subjects): 7400 ng·h/mL | Cmax ([6]; healthy subjects): 1871.3 ng/mL
